Assay results from patent USRE48335E1, “Polymyxin derivatives as antimicrobial compounds” (priority 2014, dated 2020).
In brackets after ≈: the same amount, converted by molar mass. Positions of bridges follow the written chain, without caps; N, C: chain ends. Non-standard residues stand in square brackets, D forms with d. Residues, ends and D or L forms follow the SMILES beside them. *: point of attachment. Heptanoyl(6-Me) = CC(C)CCCCC(=O)*; X6 = O=C(c1ccc(F)c(Cl)c1)*; Nonanoyl = CCCCCCCCC(=O)*; X1 = CC[C@H](C)CCCCC(=O)*; Heptanoyl = CCCCCCC(=O)*; Octanoyl = CCCCCCCC(=O)*; Dab = NCC[C@H](N)C(=O)O; Abu = CC[C@H](N)C(=O)O; Dap = NC[C@H](N)C(=O)O

Experiments:
P. aeruginosa ATCC 27853 = assay: In vivo efficacy in mouse blood infection model (neutropenic Swiss mice); conditions: compound, free base 4 mg/kg intravenously 2 h after inoculation, blood at 4 h
Outline: (§1)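 Activity expressed as Δlog10 CFU/mL blood, treated minus saline control, 4 h after a single 4 mg/kg (free base) i.v. dose given 2 h post-infection. Bloodstream infection from i.v. early log-phase inoculum in Swiss mice made neutropenic by i.p. cyclophosphamide on days −4 (150 mg/kg) and −1 (100 mg/kg).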

[1] = tested on: K. pneumoniae FADDI-KP032; assay: as above; conditions: compound, free base 4 mg/kg intravenously 2 h after inoculation, blood at 4 h
Outline: as §1

A. baumannii ATCC 19606 = assay: as above; conditions: compound, free base 4 mg/kg intravenously 2 h after inoculation, blood at 4 h
Outline: as §1

Acinetobacter baumannii = tested on: Acinetobacter baumannii
Outline: (§2)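 Broth microdilution, CAMHB, per CLSI M100-S18; compounds as TFA salts; polymyxin B (sulphate) control; read-out MIC.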

Klebsiella pneumoniae = tested on: Klebsiella pneumoniae
Outline: as §2

Enterobacter cloacae = tested on: Enterobacter cloacae
Outline: as §2

Pseudomonas aeruginosa = tested on: Pseudomonas aeruginosa
Outline: as §2

Compound | Δ log (Treated-Control at 4 h) (P. aeruginosa ATCC 27853) [log10 CFU/mL] | Δ log (Treated-Control at 4 h) [1] [log10 CFU/mL] | Δ log (Treated-Control at 4 h) (A. baumannii ATCC 19606) [log10 CFU/mL] | MIC (Acinetobacter baumannii) [µg/mL] | Minimum inhibitory concentration, Ab A ATCC 17978 (Acinetobacter baumannii) [µg/mL] | Minimum inhibitory concentration, Ab ATCC 19606 (Acinetobacter baumannii) [µg/mL] | Minimum inhibitory concentration, Ab FADDI-AB034 (Acinetobacter baumannii) [µg/mL] | MIC (Klebsiella pneumoniae) [µg/mL] | Minimum inhibitory concentration, Ec FADDI-EC001 (Enterobacter cloacae) [µg/mL] | Minimum inhibitory concentration, Ec FADDI-EC003 (Enterobacter cloacae) [µg/mL] | Minimum inhibitory concentration, Ec FADDI-EC006 (Enterobacter cloacae) [µg/mL] | MIC (Pseudomonas aeruginosa) [µg/mL] | Minimum inhibitory concentration, Pa ATCC 27853 (Pseudomonas aeruginosa) [µg/mL] | Minimum inhibitory concentration, Pa FADDI-PA022 (Pseudomonas aeruginosa) [µg/mL] | Minimum inhibitory concentration, Pa FADDI-PA025 (Pseudomonas aeruginosa) [µg/mL] | Minimum inhibitory concentration (MIC), Ab ATCC 17978 (Acinetobacter baumannii) [µg/mL] | Minimum inhibitory concentration (MIC), Ab ATCC 19606 (Acinetobacter baumannii) [µg/mL] | Minimum inhibitory concentration (MIC), Ab FADDI-AB034 (Acinetobacter baumannii) [µg/mL] | Minimum inhibitory concentration (MIC), Ec FADDI-EC001 (Enterobacter cloacae) [µg/mL] | Minimum inhibitory concentration (MIC), Ec FADDI-EC003 (Enterobacter cloacae) [µg/mL] | further results
CC[C@@H]1NC(=O)[C@@H](CC(C)C)NC(=O)[C@H](CCN)NC(=O)[C@@H](NC(=O)[C@H](CN)NC(=O)[C@@H](NC(=O)[C@H](CCN)NC(=O)c2ccc(F)c(Cl)c2)[C@@H](C)O)CCNC(=O)[C@H]([C@@H](C)O)NC(=O)[C@H](CCN)NC(=O)[C@H](CCN)NC1=O [Compound 110] (X6-[Dab]T[Dap][Dab][Dab][dL][Abu][Dab][Dab]T; lactam 4-C) | −3.30 | −2.50 | −1.57 | 2 (≈ 1.75 µM) | 0.5 (≈ 0.437 µM) | 2 (≈ 1.75 µM) | 0.5 (≈ 0.437 µM) | 0.25 (≈ 0.219 µM) | 1 (≈ 0.874 µM) | 1 (≈ 0.874 µM) | 0.5 (≈ 0.437 µM) | 0.5 (≈ 0.437 µM) | 0.5 (≈ 0.437 µM) | 0.5 (≈ 0.437 µM) | 1 (≈ 0.874 µM) |  |  |  |  |  | 
CCCCCCCC(=O)N[C@@H](CCN)C(=O)N[C@H](C(=O)N[C@@H](CN)C(=O)N[C@H]1CCNC(=O)[C@H]([C@@H](C)O)NC(=O)[C@H](CCN)NC(=O)[C@H](CCN)NC(=O)[C@H]([C@@H](C)O)NC(=O)[C@@H](Cc2ccccc2)NC(=O)[C@H](CCN)NC1=O)[C@@H](C)O [Compound 129] (Octanoyl-[Dab]T[Dap][Dab][Dab][dF]T[Dab][Dab]T; lactam 4-C) | −3.45 | −3.64 | −1.42 | 0.5 (≈ 0.43 µM) | 0.25 (≈ 0.215 µM) | 0.5 (≈ 0.43 µM) | 0.25 (≈ 0.215 µM) | <0.125 | 0.5 (≈ 0.43 µM) | <0.125 | 0.5 (≈ 0.43 µM) | 0.5 (≈ 0.43 µM) | 0.5 (≈ 0.43 µM) | 1 (≈ 0.86 µM) | 2 (≈ 1.72 µM) |  |  |  |  |  | 
CCCCCCC(=O)N[C@@H](CCN)C(=O)N[C@H](C(=O)N[C@@H](CN)C(=O)N[C@H]1CCNC(=O)[C@H]([C@@H](C)O)NC(=O)[C@H](CCN)NC(=O)[C@H](CCN)NC(=O)[C@H](CC)NC(=O)[C@@H](Cc2ccccc2)NC(=O)[C@H](CCN)NC1=O)[C@@H](C)O [Compound 131] (Heptanoyl-[Dab]T[Dap][Dab][Dab][dF][Abu][Dab][Dab]T; lactam 4-C) | −3.80 | −3.44 | −1.75 | 0.25 (≈ 0.221 µM) | 0.25 (≈ 0.221 µM) | 0.25 (≈ 0.221 µM) | 0.25 (≈ 0.221 µM) | <0.125 | <0.125 | <0.125 | <0.125 | 0.5 (≈ 0.441 µM) | 0.5 (≈ 0.441 µM) | 2 (≈ 1.76 µM) | 4 (≈ 3.53 µM) |  |  |  |  |  | 
CCCCCCCCC(=O)N[C@@H](CCN)C(=O)N[C@H](C(=O)N[C@@H](CN)C(=O)N[C@H]1CCNC(=O)[C@H]([C@@H](C)O)NC(=O)[C@H](CCN)NC(=O)[C@H](CCN)NC(=O)[C@H](C)NC(=O)[C@@H](CC(C)C)NC(=O)[C@H](CCN)NC1=O)[C@@H](C)O [Compound 132] (Nonanoyl-[Dab]T[Dap][Dab][Dab][dL]A[Dab][Dab]T; lactam 4-C) | −4.39 | −3.16 | −1.58 | 0.5 (≈ 0.449 µM) | 0.5 (≈ 0.449 µM) | 0.5 (≈ 0.449 µM) | 0.25 (≈ 0.225 µM) | 0.25 (≈ 0.225 µM) | 0.25 (≈ 0.225 µM) | <0.125 | <0.125 | 0.5 (≈ 0.449 µM) | 0.5 (≈ 0.449 µM) | 1 (≈ 0.898 µM) | 4 (≈ 3.59 µM) |  |  |  |  |  | 
CC[C@H](C)CCCCC(=O)N[C@@H](CCN)C(=O)N[C@H](C(=O)N[C@H](CO)C(=O)N[C@H]1CCNC(=O)[C@H]([C@@H](C)O)NC(=O)[C@H](CCN)NC(=O)[C@H](CCN)NC(=O)[C@H]([C@@H](C)O)NC(=O)[C@@H](CC(C)C)NC(=O)[C@H](CCN)NC1=O)[C@@H](C)O [Compound 150, polymyxin D1] (X1-[Dab]T[dS][Dab][Dab][dL]T[Dab][Dab]T; lactam 4-C) | −0.29 | −3.77 | −1.46 | 0.25 (≈ 0.218 µM) |  |  |  | 0.5 (≈ 0.437 µM) |  |  |  | 4 (≈ 3.5 µM) |  |  |  | 0.25 (≈ 0.218 µM) | 0.25 (≈ 0.218 µM) | 0.25 (≈ 0.218 µM) | 0.5 (≈ 0.437 µM) | 0.5 (≈ 0.437 µM) | Minimum inhibitory concentration (MIC), Ec FADDI-EC006 (Enterobacter cloacae): 0.5 µg/mL (≈ 0.437 µM); Minimum inhibitory concentration (MIC), Pa ATCC 27853 (Pseudomonas aeruginosa): 4 µg/mL (≈ 3.5 µM); Minimum inhibitory concentration (MIC), Pa FADDI-PA022 (Pseudomonas aeruginosa): 4 µg/mL (≈ 3.5 µM); Minimum inhibitory concentration (MIC), Pa FADDI-PA025 (Pseudomonas aeruginosa): >32 µg/mL
CC(C)CCCCC(=O)N[C@@H](CCN)C(=O)N[C@H](C(=O)N[C@H](CO)C(=O)N[C@H]1CCNC(=O)[C@H]([C@@H](C)O)NC(=O)[C@H](CCN)NC(=O)[C@H](CCN)NC(=O)[C@H]([C@@H](C)O)NC(=O)[C@@H](CC(C)C)NC(=O)[C@H](CCN)NC1=O)[C@@H](C)O [Compound 151, polymyxin D2] ({Heptanoyl(6-Me)}-[Dab]T[dS][Dab][Dab][dL]T[Dab][Dab]T; lactam 4-C) | −0.40 | −4.71 | −1.59 | 0.5 (≈ 0.442 µM) |  |  |  | 0.5 (≈ 0.442 µM) |  |  |  | 4 (≈ 3.54 µM) |  |  |  | 0.25 (≈ 0.221 µM) | 0.5 (≈ 0.442 µM) | 0.5 (≈ 0.442 µM) | 0.25 (≈ 0.221 µM) | 0.25 (≈ 0.221 µM) | Minimum inhibitory concentration (MIC), Ec FADDI-EC006 (Enterobacter cloacae): 0.25 µg/mL (≈ 0.221 µM); Minimum inhibitory concentration (MIC), Pa ATCC 27853 (Pseudomonas aeruginosa): 4 µg/mL (≈ 3.54 µM); Minimum inhibitory concentration (MIC), Pa FADDI-PA022 (Pseudomonas aeruginosa): 4 µg/mL (≈ 3.54 µM); Minimum inhibitory concentration (MIC), Pa FADDI-PA025 (Pseudomonas aeruginosa): >32 µg/mL
CC[C@H](C)CCCCC(=O)N[C@@H](CCN)C(=O)N[C@H](C(=O)N[C@@H](CCN)C(=O)N[C@H]1CCNC(=O)[C@H]([C@@H](C)O)NC(=O)[C@H](CCN)NC(=O)[C@H](CCN)NC(=O)[C@H]([C@@H](C)O)NC(=O)[C@@H](CC(C)C)NC(=O)[C@H](CCN)NC1=O)[C@@H](C)O [Compound 152, polymyxin M1] (X1-[Dab]T[Dab][Dab][Dab][dL]T[Dab][Dab]T; lactam 4-C) | −3.24 | −3.86 | −1.61 | 1 (≈ 0.864 µM) |  |  |  | 0.5 (≈ 0.432 µM) |  |  |  | 1 (≈ 0.864 µM) |  |  |  | 1 (≈ 0.864 µM) | 1 (≈ 0.864 µM) | 1 (≈ 0.864 µM) | 0.5 (≈ 0.432 µM) | 0.5 (≈ 0.432 µM) | Minimum inhibitory concentration (MIC), Ec FADDI-EC006 (Enterobacter cloacae): 0.25 µg/mL (≈ 0.216 µM); Minimum inhibitory concentration (MIC), Pa ATCC 27853 (Pseudomonas aeruginosa): 1 µg/mL (≈ 0.864 µM); Minimum inhibitory concentration (MIC), Pa FADDI-PA022 (Pseudomonas aeruginosa): 1 µg/mL (≈ 0.864 µM); Minimum inhibitory concentration (MIC), Pa FADDI-PA025 (Pseudomonas aeruginosa): 32 µg/mL (≈ 27.6 µM)
CC(C)CCCCC(=O)N[C@@H](CCN)C(=O)N[C@H](C(=O)N[C@@H](CCN)C(=O)N[C@H]1CCNC(=O)[C@H]([C@@H](C)O)NC(=O)[C@H](CCN)NC(=O)[C@H](CCN)NC(=O)[C@H]([C@@H](C)O)NC(=O)[C@@H](CC(C)C)NC(=O)[C@H](CCN)NC1=O)[C@@H](C)O [Compound 153, polymyxin M2] ({Heptanoyl(6-Me)}-[Dab]T[Dab][Dab][Dab][dL]T[Dab][Dab]T; lactam 4-C) | −2.73 | −3.59 | −1.26 | 2 (≈ 1.75 µM) |  |  |  | 0.25 (≈ 0.219 µM) |  |  |  | 0.5 (≈ 0.437 µM) |  |  |  | 2 (≈ 1.75 µM) | 2 (≈ 1.75 µM) | 1 (≈ 0.875 µM) | 0.25 (≈ 0.219 µM) | 0.25 (≈ 0.219 µM) | Minimum inhibitory concentration (MIC), Ec FADDI-EC006 (Enterobacter cloacae): 0.5 µg/mL (≈ 0.437 µM); Minimum inhibitory concentration (MIC), Pa ATCC 27853 (Pseudomonas aeruginosa): 0.5 µg/mL (≈ 0.437 µM); Minimum inhibitory concentration (MIC), Pa FADDI-PA022 (Pseudomonas aeruginosa): 4 µg/mL (≈ 3.5 µM); Minimum inhibitory concentration (MIC), Pa FADDI-PA025 (Pseudomonas aeruginosa): >32 µg/mL
